In ChEMBL document CHEMBL1133958, “Derivatives of (2R,3R,4S)-2-aminomethylpyrrolidine-3,4-diol are selective alpha-mannosidase inhibitors” (Bioorg Med Chem Lett, 2001):
The source made the active and inactive calls. The calls are words filed in the database; no cut-off is given here.

Experiments:
[1] = molecular target: T1, Beta-galactosidase (Aspergillus niger) (UniProt P29853); experiment: Percentage inhibition of Beta-galactosidase from Aspergillus niger at 1 mM concentration
T1 sequence (whole entry): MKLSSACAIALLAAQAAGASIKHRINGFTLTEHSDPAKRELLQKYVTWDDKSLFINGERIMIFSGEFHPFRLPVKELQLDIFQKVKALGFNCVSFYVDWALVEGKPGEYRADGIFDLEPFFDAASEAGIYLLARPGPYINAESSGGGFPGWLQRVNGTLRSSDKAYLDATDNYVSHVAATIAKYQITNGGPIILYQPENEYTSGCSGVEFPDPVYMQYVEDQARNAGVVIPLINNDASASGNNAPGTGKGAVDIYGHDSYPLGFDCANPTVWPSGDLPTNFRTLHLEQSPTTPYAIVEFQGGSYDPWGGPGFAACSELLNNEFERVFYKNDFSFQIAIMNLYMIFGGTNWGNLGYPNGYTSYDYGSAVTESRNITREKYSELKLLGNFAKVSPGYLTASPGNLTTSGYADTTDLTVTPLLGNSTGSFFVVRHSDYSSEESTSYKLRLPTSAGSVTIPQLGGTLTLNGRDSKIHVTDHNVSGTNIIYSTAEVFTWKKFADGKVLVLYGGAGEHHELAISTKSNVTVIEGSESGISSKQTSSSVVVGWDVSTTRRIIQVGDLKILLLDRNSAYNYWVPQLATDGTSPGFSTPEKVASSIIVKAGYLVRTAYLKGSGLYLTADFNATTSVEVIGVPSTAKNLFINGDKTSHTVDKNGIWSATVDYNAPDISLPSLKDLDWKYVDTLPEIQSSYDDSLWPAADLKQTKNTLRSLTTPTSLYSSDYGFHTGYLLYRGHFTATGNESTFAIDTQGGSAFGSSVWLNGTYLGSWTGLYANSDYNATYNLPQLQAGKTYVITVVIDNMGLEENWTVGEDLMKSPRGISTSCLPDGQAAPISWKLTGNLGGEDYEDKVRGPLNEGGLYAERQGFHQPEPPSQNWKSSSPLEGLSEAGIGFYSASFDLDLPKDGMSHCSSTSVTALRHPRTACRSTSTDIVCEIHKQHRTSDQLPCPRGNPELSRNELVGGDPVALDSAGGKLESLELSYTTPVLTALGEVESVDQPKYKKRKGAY

[2] = Inhibitory activity towards Beta-galactosidase from Aspergillus oryzae
[3] = molecular target: T2, Alpha-glucosidase (Oryza sativa Japonica Group) (UniProt Q9LGC6); experiment: Percentage inhibition of Alpha-glucosidase from Rice (maltase) at 1 mM; […]
T2 sequence (whole entry): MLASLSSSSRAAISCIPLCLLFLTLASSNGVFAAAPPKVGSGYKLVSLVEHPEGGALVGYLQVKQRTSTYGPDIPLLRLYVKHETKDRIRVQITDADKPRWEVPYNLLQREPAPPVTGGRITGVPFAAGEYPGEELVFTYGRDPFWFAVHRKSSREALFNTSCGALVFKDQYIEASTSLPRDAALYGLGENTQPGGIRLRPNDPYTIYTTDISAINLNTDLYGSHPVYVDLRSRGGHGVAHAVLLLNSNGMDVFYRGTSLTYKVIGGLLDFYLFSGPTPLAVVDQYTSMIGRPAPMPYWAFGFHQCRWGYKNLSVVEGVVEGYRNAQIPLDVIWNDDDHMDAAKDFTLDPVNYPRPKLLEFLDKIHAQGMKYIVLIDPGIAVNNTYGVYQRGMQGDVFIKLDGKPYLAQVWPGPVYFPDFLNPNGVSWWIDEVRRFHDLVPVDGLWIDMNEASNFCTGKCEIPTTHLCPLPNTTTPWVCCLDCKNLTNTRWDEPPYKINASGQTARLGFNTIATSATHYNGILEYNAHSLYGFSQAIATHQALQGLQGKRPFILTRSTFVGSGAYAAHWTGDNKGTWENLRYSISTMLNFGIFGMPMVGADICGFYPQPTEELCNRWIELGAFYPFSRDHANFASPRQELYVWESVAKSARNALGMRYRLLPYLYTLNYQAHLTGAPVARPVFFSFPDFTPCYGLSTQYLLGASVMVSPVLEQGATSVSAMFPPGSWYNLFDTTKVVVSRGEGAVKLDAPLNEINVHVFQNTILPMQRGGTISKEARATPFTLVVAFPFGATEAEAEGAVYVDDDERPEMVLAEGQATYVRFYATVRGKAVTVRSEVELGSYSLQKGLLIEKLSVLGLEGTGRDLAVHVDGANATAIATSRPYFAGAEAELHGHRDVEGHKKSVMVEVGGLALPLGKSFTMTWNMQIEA

[4] = molecular target: Glucoamylase (Aspergillus niger) (UniProt P69328); experiment: Percentage inhibition of Alpha-glucosidase from Aspergillus niger (amyloglucosidase) at 1 mM
Chain of Glucoamylase (Aspergillus niger) (P69328 whole entry): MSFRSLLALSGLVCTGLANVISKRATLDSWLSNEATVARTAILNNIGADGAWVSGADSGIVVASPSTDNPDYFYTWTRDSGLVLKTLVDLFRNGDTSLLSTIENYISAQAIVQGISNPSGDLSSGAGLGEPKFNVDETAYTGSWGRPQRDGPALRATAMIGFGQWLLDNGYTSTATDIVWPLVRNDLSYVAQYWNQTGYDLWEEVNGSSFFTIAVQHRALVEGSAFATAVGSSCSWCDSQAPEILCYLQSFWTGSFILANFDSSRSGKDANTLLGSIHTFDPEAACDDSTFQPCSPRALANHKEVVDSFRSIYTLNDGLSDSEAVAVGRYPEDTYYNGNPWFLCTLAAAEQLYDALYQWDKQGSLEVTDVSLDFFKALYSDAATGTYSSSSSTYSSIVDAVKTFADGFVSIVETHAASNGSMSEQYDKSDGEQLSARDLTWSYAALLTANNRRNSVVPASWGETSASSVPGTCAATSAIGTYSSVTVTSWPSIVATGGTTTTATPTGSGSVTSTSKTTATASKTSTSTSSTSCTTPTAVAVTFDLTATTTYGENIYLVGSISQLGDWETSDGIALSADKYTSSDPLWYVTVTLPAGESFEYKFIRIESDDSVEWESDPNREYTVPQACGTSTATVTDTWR

[5] = Percentage inhibition of Beta-galactosidase from Aspergillus oryzae at 1 mM
[6] = molecular target: T3, Glucoamylase 1 (Rhizopus oryzae) (UniProt P07683); experiment: Percentage inhibition of Alpha-glucosidase from Rhizopus mold (amyloglucosidase) at 1 mM concentration; details: Rhizopus arrhizus
T3 sequence (whole entry): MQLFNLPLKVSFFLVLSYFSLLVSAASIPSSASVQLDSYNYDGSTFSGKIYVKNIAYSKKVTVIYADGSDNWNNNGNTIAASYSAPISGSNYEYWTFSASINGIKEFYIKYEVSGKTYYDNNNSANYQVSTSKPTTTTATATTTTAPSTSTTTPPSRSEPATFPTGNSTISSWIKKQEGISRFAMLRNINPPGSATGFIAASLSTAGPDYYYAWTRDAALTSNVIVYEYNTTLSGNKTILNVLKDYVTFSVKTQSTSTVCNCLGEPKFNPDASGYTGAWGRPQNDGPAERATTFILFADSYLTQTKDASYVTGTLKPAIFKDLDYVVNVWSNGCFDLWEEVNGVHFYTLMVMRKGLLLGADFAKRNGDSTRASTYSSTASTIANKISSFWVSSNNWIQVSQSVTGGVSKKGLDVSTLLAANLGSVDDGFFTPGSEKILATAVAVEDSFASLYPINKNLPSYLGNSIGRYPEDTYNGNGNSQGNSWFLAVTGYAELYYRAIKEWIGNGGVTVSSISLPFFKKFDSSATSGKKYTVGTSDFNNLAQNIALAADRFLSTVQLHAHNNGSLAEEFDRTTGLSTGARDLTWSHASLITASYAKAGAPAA

Saccharomyces cerevisiae [7] = experiment: Percentage inhibition of Alpha-glucosidase from Yeast (maltase) at 1 mM; […]
[8] = molecular target: T4, Beta-galactosidase (Bos taurus) (UniProt Q58D55); experiment: Percentage inhibition of Beta-galactosidase from Bovine liver at 1 mM concentration
T4 sequence (whole entry): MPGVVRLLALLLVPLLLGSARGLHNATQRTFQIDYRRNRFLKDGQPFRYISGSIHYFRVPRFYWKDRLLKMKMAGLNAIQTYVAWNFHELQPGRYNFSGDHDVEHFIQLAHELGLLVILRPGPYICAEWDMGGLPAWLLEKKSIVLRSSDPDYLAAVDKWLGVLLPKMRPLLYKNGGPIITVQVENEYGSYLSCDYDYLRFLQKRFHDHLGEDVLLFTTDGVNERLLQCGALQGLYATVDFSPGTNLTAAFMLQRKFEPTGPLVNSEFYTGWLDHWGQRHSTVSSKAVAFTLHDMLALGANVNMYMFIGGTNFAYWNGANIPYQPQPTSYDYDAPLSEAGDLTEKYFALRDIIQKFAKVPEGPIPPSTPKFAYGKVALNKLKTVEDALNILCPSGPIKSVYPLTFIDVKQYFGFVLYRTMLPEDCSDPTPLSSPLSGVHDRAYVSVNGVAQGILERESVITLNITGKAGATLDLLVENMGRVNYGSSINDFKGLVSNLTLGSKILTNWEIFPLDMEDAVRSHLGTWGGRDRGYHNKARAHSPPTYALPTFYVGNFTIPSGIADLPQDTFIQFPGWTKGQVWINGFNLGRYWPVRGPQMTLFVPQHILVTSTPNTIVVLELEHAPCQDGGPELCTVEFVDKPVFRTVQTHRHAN

[9] = molecular target: Beta-glucosidase A (Caldicellulosiruptor saccharolyticus) (UniProt P10482); experiment: Percentage inhibition of Beta-Glucosidase from Caldocellum saccharol. at 1 mM; No inhibition
Chain of Beta-glucosidase A (Caldicellulosiruptor saccharolyticus) (P10482 whole entry): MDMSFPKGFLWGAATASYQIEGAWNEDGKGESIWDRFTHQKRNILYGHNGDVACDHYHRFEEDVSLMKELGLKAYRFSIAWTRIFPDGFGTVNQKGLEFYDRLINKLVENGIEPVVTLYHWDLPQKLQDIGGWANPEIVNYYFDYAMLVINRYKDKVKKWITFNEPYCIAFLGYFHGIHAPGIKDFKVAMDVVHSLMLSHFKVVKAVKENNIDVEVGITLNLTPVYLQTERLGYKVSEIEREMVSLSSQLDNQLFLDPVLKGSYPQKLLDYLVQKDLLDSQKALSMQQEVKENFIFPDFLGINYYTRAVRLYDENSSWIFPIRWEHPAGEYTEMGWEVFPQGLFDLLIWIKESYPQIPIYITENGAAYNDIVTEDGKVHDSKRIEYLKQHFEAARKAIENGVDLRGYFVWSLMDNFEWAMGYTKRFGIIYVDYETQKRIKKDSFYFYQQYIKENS

[10] = molecular target: Beta-galactosidase (Escherichia coli K-12) (UniProt P00722); experiment: Percentage inhibition of Beta-galactosidase from Escherichia coli at 1 mM concentration
Chain of Beta-galactosidase (Escherichia coli K-12) (P00722 whole entry): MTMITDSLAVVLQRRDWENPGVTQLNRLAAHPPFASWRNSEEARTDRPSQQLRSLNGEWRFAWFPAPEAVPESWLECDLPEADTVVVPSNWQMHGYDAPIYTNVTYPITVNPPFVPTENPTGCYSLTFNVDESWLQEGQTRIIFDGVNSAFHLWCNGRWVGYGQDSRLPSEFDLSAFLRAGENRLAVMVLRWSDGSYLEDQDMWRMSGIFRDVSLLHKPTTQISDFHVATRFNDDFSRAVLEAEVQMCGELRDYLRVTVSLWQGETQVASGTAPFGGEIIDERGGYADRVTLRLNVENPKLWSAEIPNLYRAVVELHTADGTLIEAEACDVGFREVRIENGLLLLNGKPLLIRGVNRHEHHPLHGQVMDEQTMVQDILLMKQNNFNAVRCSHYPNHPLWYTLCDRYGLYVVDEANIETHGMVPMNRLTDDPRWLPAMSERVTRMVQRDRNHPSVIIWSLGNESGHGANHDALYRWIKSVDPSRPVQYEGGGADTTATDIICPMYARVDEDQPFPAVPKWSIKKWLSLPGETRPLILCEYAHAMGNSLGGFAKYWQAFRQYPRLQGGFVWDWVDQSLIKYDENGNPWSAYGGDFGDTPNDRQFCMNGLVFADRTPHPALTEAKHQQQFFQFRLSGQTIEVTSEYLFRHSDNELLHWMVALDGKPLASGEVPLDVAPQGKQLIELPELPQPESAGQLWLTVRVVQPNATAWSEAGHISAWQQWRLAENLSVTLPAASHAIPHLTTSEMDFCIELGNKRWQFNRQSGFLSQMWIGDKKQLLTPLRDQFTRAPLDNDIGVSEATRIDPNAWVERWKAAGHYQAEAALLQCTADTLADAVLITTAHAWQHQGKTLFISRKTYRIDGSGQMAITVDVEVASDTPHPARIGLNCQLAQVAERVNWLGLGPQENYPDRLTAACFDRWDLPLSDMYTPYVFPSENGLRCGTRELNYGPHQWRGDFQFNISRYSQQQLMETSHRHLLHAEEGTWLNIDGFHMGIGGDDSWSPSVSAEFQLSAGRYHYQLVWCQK

Saccharomyces cerevisiae [11] = experiment: Percentage inhibition of Alpha-glucosidase from Baker yeast (isomaltase) at 1 mM
Beta-glucosidase A = Beta-glucosidase A (Caldicellulosiruptor saccharolyticus, UniProt P10482); experiment: Inhibitory activity towards Beta-Glucosidase from Caldocellum saccharol.
Chain of Beta-glucosidase A (P10482 whole entry): as the sequence (P10482 whole entry) above

Saccharomyces cerevisiae [12] = experiment: Percentage inhibition of Alpha-glucosidase from Yeast (maltase) at 1 mM
[13] = molecular target: Glucoamylase (Aspergillus niger) (UniProt P69328); experiment: Percentage inhibition of Alpha-glucosidase from Aspergillus niger (amyloglucosidase) at 1 mM; No inhibition
[14] = Percentage inhibition of Beta-galactosidase from Aspergillus oryzae at 1 mM; No inhibition
[15] = system: Alpha-mannosidase (Prunus dulcis); experiment: Percentage inhibition of Alpha-mannosidase from Almond at 1 mM
Beta-galactosidase [16] = molecular target: T5, Beta-galactosidase (Bos taurus, UniProt Q58D55); experiment: Inhibitory activity towards Beta-galactosidase from Bovine liver
T5 sequence (Q58D55 whole entry): T4 sequence (whole entry)

[17] = molecular target: Beta-glucosidase A (Caldicellulosiruptor saccharolyticus) (UniProt P10482); experiment: Percentage inhibition of Beta-Glucosidase from Caldocellum saccharol. at 1 mM
[18] = molecular target: T3, Glucoamylase 1 (Rhizopus oryzae); experiment: Percentage inhibition of Alpha-glucosidase from Rhizopus mold (amyloglucosidase) at 1 mM concentration; No inhibition; details: Rhizopus arrhizus
Beta-galactosidase [19] = molecular target: T6, Beta-galactosidase (Aspergillus niger, UniProt P29853); experiment: Inhibitory activity towards Beta-galactosidase from Aspergillus niger
T6 sequence (P29853 whole entry): T1 sequence (whole entry)

[20] = Percentage inhibition of Beta-galactosidase from Jack bean at 1 mM concentration; details: Canavalia ensiformis
[21] = molecular target: T2, Alpha-glucosidase (Oryza sativa Japonica Group); experiment: Percentage inhibition of Alpha-glucosidase from Rice (maltase) at 1 mM
[22] = molecular target: T4, Beta-galactosidase (Bos taurus); experiment: Percentage inhibition of Beta-galactosidase from Bovine liver at 1 mM; No inhibition

Structure (SMILES)	inhibition [1] [%]	IC50 [2] [µM]	inhibition [3]	inhibition [4] [%]	inhibition [5] [%]	inhibition [6] [%]	inhibition (Saccharomyces cerevisiae [7])	inhibition [8] [%]	inhibition [10] [%]	inhibition (Saccharomyces cerevisiae [11]) [%]	inhibition (Saccharomyces cerevisiae [12]) [%]	inhibition [13]	inhibition [15] [%]	inhibition [17] [%]	inhibition [18]	other results
O[C@@H]1CNC[C@@H]1O	39	790	inactive	24	53	47	inactive	25	41	32	–	–	–	–	–	inhibition [9]: inactive
CC(NCC1NCC(O)C1O)C(O)(c1ccccc1)c1ccccc1 (stereo not given)	29	–	inactive	–	–	–	–	84	25	46	28	inactive	48	72	inactive	IC50 (Beta-glucosidase A): 320 µM; inhibition [14]: inactive; IC50 (Beta-galactosidase [16]): 140 µM; Ki (Beta-galactosidase [16]): 21 µM
OC(O)CC1NCC(O)C1O (stereo not given)	91	75	inactive	21	80	40	inactive	32	48	28	–	–	–	90	–	Ki [2]: 75 µM; IC50 (Beta-galactosidase [19]): 140 µM; Ki (Beta-galactosidase [19]): 200 µM
NCC1NCC(O)C1O (stereo not given)	24	–	–	–	60	–	–	–	92	–	84	inactive	51	93	inactive	inhibition [20]: 76%; inhibition [21]: 98%; inhibition [22]: inactive
